Values quoted from earlier work as cited in patent publication US11447440B2, “Treprostinil monohydrate crystals and methods for preparation thereof” (CHIROGATE INTERNATIONAL INC., priority 2020, dated 2022).
Read-outs that look alike come from different tables or passages of the source.

Details: for Treprostinil dimer formation on standing: stability tests

Row | Structure (SMILES) | Treprostinil dimer formation (accelerated stability tests at 25° C., 30° C. and 40° C. for 6 months (Lot No. 01M07033)) | stability in comparison with the anhydrous Treprostinil crystal (storage at room temperature over a long period of time) | Treprostinil dimer formation on standing (at 5° C.) | Treprostinil dimer formation on standing (at higher temperature (than 25° C.)) | Treprostinil dimer formation on standing (standing at 25° C.)
1 | CCCCC[C@H](O)CC[C@@H]1[C@H]2Cc3c(cccc3OCC(=O)O)C[C@H]2C[C@H]1O.O [Treprostinil monohydrate crystal] | almost negligible | more stable |  |  | 
2 | CCCCC[C@H](O)CC[C@@H]1[C@H]2Cc3cccc(OCC(=O)O)c3C[C@H]2C[C@H]1O [anhydrous Treprostinil] |  |  | negligible | increased | continuing to form
